In article PMC12288454, “Functional consequences of genetic variations in DgoR, a GntR/FadR family transcriptional repressor of D-galactonate metabolism in Escherichia coli” (Journal of Bacteriology, 2025):

T1: DgoR (BW WT DgoR) (Escherichia coli, UniProt P31460, A152E)
T1 construct: full length (229 aa), C-terminal 6XHis tag, expressed from Ptrc in pRC10 in E. coli BL21(DE3), Co-NTA purified; dimer
T1 sequence (P31460 1-229 A152E): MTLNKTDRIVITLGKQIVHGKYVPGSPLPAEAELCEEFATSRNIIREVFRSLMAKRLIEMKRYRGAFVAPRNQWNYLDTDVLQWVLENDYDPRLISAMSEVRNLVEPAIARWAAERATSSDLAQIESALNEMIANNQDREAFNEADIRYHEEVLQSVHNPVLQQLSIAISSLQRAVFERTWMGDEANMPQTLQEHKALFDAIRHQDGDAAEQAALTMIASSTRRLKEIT

T2: DgoR (BW WT DgoR) (Escherichia coli, UniProt P31460, R71C)
T2 construct: full length (229 aa), C-terminal 6XHis tag, expressed from Ptrc in pRC10 in E. coli BL21(DE3), Co-NTA purified; dimer
T2 sequence (P31460 1-229 R71C): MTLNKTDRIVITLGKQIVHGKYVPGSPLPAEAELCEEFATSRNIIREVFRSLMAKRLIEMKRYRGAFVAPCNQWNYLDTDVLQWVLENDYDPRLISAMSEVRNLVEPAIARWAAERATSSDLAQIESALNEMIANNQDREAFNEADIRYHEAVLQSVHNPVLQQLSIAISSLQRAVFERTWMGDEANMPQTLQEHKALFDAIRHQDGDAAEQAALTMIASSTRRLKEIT

T3: DgoR (BW WT DgoR) (Escherichia coli, UniProt P31460)
T3 construct: full length (229 aa), C-terminal 6XHis tag, expressed from Ptrc in pRC10 in E. coli BL21(DE3), Co-NTA purified; dimer
T3 sequence (P31460 1-229): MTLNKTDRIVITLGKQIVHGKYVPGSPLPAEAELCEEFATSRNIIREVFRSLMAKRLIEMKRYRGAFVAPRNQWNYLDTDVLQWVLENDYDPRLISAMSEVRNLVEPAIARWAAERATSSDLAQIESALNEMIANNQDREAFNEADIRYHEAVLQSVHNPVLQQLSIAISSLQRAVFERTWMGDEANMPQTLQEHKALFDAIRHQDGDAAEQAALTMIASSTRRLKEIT

T4: DgoR WT (Escherichia coli BW, UniProt P31460 1-229)
T4 sequence: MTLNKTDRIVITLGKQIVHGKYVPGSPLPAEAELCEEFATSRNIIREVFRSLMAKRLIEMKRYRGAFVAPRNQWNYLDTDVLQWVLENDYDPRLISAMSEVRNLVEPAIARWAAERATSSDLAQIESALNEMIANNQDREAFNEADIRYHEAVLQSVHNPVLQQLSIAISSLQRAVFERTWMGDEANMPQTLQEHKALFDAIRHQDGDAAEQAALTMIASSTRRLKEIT


Tests used:
DgoR (BW WT DgoR) [1] = molecular target: T1, DgoR (BW WT DgoR); experiment: label-free microscale thermophoresis; type: binding
DgoR (BW WT DgoR) [2] = molecular target: T2, DgoR (BW WT DgoR); experiment: label-free microscale thermophoresis; type: binding
DgoR (BW WT DgoR) [3] = molecular target: T3, DgoR (BW WT DgoR); experiment: label-free microscale thermophoresis; type: binding
DgoR WT = molecular target: T4, DgoR WT; experiment: EMSA; no effector; apparent Kd, Hill fit; 10 nM DNA, 50 mM Tris pH 8.5, 10 mM MgCl2, 265 mM NaCl, 1 mM PMSF, 12% glycerol, 2 mM DTT, 1 ug herring sperm DNA per 20 uL, 27 C 30 min; effector pre-incubation 37 C 20 min; 8% native PAGE 0.5x TBE; settings: protein: recombinant; tags: C-terminal 6xHis; chain copies: 2; label: 5'-Cy5 on strand 1; blunt

Row | Molecule | Kd (DgoR (BW WT DgoR) [1]) [µM] | Kd (DgoR (BW WT DgoR) [2]) [µM] | Kd (DgoR (BW WT DgoR) [3]) [µM] | Kd (DgoR WT) [µM]
1 | O=C(O)[C@H](O)[C@@H](O)[C@@H](O)[C@H](O)CO [D-galactonate] | 11.3 ± 0.2 | 32.9 ± 1.2 | 10.3 ± 0.3 | 
2 | dgo promoter probe GA149/GA150 (dsDNA) DNA 1: GTGATCTAAATTGTAGTACAACAATATAAGTTTGTACTACATTACACGCACG DNA 2: CGTGCGTGTAATGTAGTACAAACTTATATTGTTGTACTACAATTTAGATCAC |  |  |  | 0.494 ± 0.019
